Holding throughout (type): cell-based, human
The subject of test [1] is PHHs in the hTCS and DhTCS. The test can be described thus: Nile Red staining of lipid accumulation in PHHs cultured in hTCS/DhTCS. Conditions: normal PHHs in hTCS, lipogenic medium plus 0.5 μM OCA. From the text: All-Human Triculture System. The hTCS was set up as previously described, including the medias, cell types, and expected functional performance. This protocol follows the guidelines of […] Health's ethics committee. All cells were isolated from donor tissue fully consented for research purposes by […] Health. PHHs have been designated as normal or diseased based on a histopathologic assessment of the tissue of origin by a board-certified pathologist, using the standard MASH CRN Scoring System. Formalin-fixed paraffin-embedded tissue sections were stained with H&E (FIG. 38) and Masson's Trichrome (FIG. 39) and assessed for steatosis, lobular inflammation, and hepatocyte ballooning to form the MAFLD Activity Score (NAS). Fibrosis was scored separately on a 4-point scale according to the classification as described by Kleiner et al (Kleiner et al., 2005). Tissues with a NAS of ≥4 were designated “Diseased” (n=4) while those with NAS of ≤3 were categorized as “Normal” (n=7) (Table 1). Glucose, Oleic Acid, and OCA Treatment. […] Nile Red Staining. Cells were washed with 1×DPBS (-Ca^++/-Mg^++) (Thermo Fisher) three times, and then Nile Red was added at a 1:500 dilution (Abcam). […] Nile Red staining was quantified by determining the densitometric fluorescence value (red channel) using Image J.

Test [2] deals with PHHs in the hTCS and DhTCS. The experiment in a line: Albumin secretion (ELISA) by PHHs in hTCS/DhTCS. Conditions: normal PHHs in hTCS. The protocol: Albumin and Urea Assays. Supernatant was collected on the indicated days for measurement of albumin and urea. Three wells or greater were designated for each condition. Samples were run in duplicate. The concentration of albumin was determined using an ELISA assay (Abcam, Cambridge, MA) and performed according to the manufacturer's instructions. Urea was measured by a colorimetric kit (Stanbio, Boerne, TX) and performed according to the manufacturer's instructions. Bicinchoninic Acid Assay (BCA). The BCA assay was performed with supernatant collected on the designated day. Three wells or greater were designated for each condition. Samples were run in duplicate. Total protein concentration was determined using a kit (Thermo Fisher, Waltham, MA) and performed according to the manufacturer's instructions. Glucose, Oleic Acid, and OCA Treatment.
(An ELISA detects its analyte on a solid surface through an enzyme-linked reagent.)

Test [3] concerns PHHs cultured in the hTCS. The experiment in a line: Bile canaliculi formation, CDFDA staining. Conditions: normal PHHs in hTCS, treated medium with addition of OCA (0.5 μM). How it is done: Glucose, Oleic Acid, and OCA Treatment. […] 5-(and-6)-Carboxy-2′, 7′-Dichlorofluorescein Diacetate Staining. To visualize bile canaliculi formation, cells were rinsed twice with 1×DPBS (—Ca^++/—Mg^++) (Thermo Fisher). Fresh medium plus 5 μM 5-(and-6)-Carboxy-2′, 7′-Dichlorofluorescein Diacetate (CDFDA) (Thermo Fisher) were added to the cells and incubated for 20 minutes at 37° C. Cells were then washed twice with 1×DPBS (—Ca^++/—Mg^++), and DMEM (no phenol red) (Gibco) was added to the cells. Images were taken with an EVOS FL cell imaging system (Thermo Fisher) using a 10× objective.

For the molecule `CC[C@H]1[C@@H](O)[C@@H]2[C@H](CC[C@]3(C)[C@@H]([C@H](C)CCC(=O)O)CC[C@@H]23)[C@@]2(C)CC[C@@H](O)C[C@@H]12` [OCA, 6α-ethyl-chenodeoxycholic acid], the “Nile Red staining (lipid accumulation)” value in test [1] (day 7) is reported as 134.6%±13.6; in test [1] (day 14, significantly less than treated only, 20160 min), 126.1%±8.5. Besides, in test [2] (day 1, not significant), the “albumin, treated plus OCA compared to treated only” value is given as “An increase in albumin”. Besides, the albumin secretion in test [2] (lipogenic medium plus 0.5 μM OCA, day 7) was 13,706±4,738 ng/mg total protein. Also, the albumin levels in test [2] (lipogenic medium plus 0.5 μM OCA, day 14) is 2,219±400 ng/mg total protein. In test [3], the “bile canalicular network formation compared to untreated PHHs” value is reported as “appeared to increase bile canalicular network formation”.
